In US20160122320A1, “USEFUL COMBINATIONS OF MONOBACTAM ANTIBIOTICS WITH BETA-LACTAMASE INHIBITORS” (Basilea Pharmaceutica AG, priority 2005, published 2016):
Values joined by “and” are separate entries in the source; they are usually repeats but may differ in a detail not shown here. Equal values may be shown once. Where a name gives a salt, the structure may show the parent alone.

What was measured:
Experiment in all cases: MIC, NCCLS broth microdilution
Type in all cases: cell-based
Settings in all cases: for MIC of antibiotic: antibiotic alone, no inhibitor; for MIC of antibiotic at fixed inhibitor concentration (4 mg/L): MIC of antibiotic compound 1 with the labelled bridged monobactam of formula II and clavulanate, 4 mg/L each
Acinetobacter sp. J2 = test system: Acinetobacter sp. J2
[1] = test system: Pseudomonas aeruginosa MK1184
Serratia marcescens S6 = test system: Serratia marcescens S6
Enterobacter cloacae P99 = test system: Enterobacter cloacae P99
[2] = test system: Stenotrophomonas malthophilia 1AC736
[3] = test system: Pseudomonas aeruginosa 1973E
Method in brief: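 MIC read by eye as the lowest concentration giving no visible growth after overnight incubation (30° C. or 37° C.), following NCCLS M7-A5 microdilution with ≤1% final DMSO. For combinations, partner compounds (formula II, III-XIII) were fixed at 4 μg/mL each while formula I compounds were titrated.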

[4] = test system: Klebsiella pneumoniae CF104
[5] = Acinetobacter baumannii J2, with 102 and clavulanate
[6] = Acinetobacter baumannii J2, with 324 and clavulanate
[7] = Stenotrophomonas maltophilia 1AC736
[8] = Stenotrophomonas malthophilia 1AC736

Compound	MIC of antibiotic (Acinetobacter sp. J2; Acinetobacter baumannii J2) [µg/mL]	MIC of antibiotic at fixed inhibitor concentration of 4 mg/L (Acinetobacter sp. J2; [5]) [µg/mL]	MIC of antibiotic at fixed inhibitor concentration of 4 mg/L (Acinetobacter sp. J2; [6]) [µg/mL]	MIC of antibiotic [1] [µg/mL]	MIC of antibiotic at fixed inhibitor concentration of 4 mg/L ([1]; with 102 and clavulanate) [µg/mL]	MIC of antibiotic at fixed inhibitor concentration of 4 mg/L ([1]; with 324 and clavulanate) [µg/mL]	MIC of antibiotic (Serratia marcescens S6)	MIC of antibiotic at fixed inhibitor concentration of 4 mg/L (Serratia marcescens S6; with 102 and clavulanate) [µg/mL]	MIC of antibiotic at fixed inhibitor concentration of 4 mg/L (Serratia marcescens S6; with 324 and clavulanate) [µg/mL]	MIC of antibiotic (Enterobacter cloacae P99) [µg/mL]	MIC of antibiotic [2, 7] [µg/mL]	MIC of antibiotic [3] [µg/mL]	MIC of antibiotic [4] [µg/mL]	MIC of antibiotic at fixed inhibitor concentration (4 mg/L) (Acinetobacter sp. J2; Acinetobacter sp. J2) [µg/mL]	MIC of antibiotic at fixed inhibitor concentration (4 mg/L) [1] [µg/mL]	MIC of antibiotic at fixed inhibitor concentration (4 mg/L) (Serratia marcescens S6) [µg/mL]	MIC of antibiotic at fixed inhibitor concentration (4 mg/L) (Enterobacter cloacae P99) [µg/mL]	MIC of antibiotic at fixed inhibitor concentration (4 mg/L) [2, 8] [µg/mL]	MIC of antibiotic at fixed inhibitor concentration (4 mg/L) [3] [µg/mL]	MIC of antibiotic at fixed inhibitor concentration (4 mg/L) [4] [µg/mL]	other results
C[C@H](ON1C(=O)[C@@H](NC(=O)/C(=N\OCc2cc(=O)c(O)cn2O)c2csc(N)n2)[C@@H]1C)C(=O)O [Compound 23, (2S)-2-((3S,4S)-3-{(2Z)-2-(2-amino(1,3-thiazol-4-yl))-3-[(1,5-dihydroxy-4-oxo(2-hydropyridyl))methoxy]-3-azaprop-2enoylamino}-4-methyl-2-oxoazetidinyloxy)propanoic acid]	16	8	8	8	8	8	0.25 µg/mL	0.25	0.25	>32	1	8	>32	–	–	–	–	–	–	–	MIC of antibiotic at fixed inhibitor concentration of 4 mg/L (Acinetobacter sp. J2; Acinetobacter baumannii J2, with 324 and sulbactam): 2 µg/mL; MIC of antibiotic at fixed inhibitor concentration of 4 mg/L ([1]; with 324 and sulbactam): 8 µg/mL; MIC of antibiotic at fixed inhibitor concentration of 4 mg/L (Serratia marcescens S6; with 324 and sulbactam): 0.5 µg/mL; MIC of antibiotic at fixed inhibitor concentration of 4 mg/L (Enterobacter cloacae P99; with 102 and clavulanate): 8 µg/mL; MIC of antibiotic at fixed inhibitor concentration of 4 mg/L (Enterobacter cloacae P99; with 324 and clavulanate): 4 µg/mL; MIC of antibiotic at fixed inhibitor concentration of 4 mg/L (Enterobacter cloacae P99; with 324 and sulbactam): 8 µg/mL; MIC of antibiotic at fixed inhibitor concentration of 4 mg/L ([3]; with 102 and clavulanate): 8 µg/mL; MIC of antibiotic at fixed inhibitor concentration of 4 mg/L ([3]; with 324 and clavulanate): 16 µg/mL; MIC of antibiotic at fixed inhibitor concentration of 4 mg/L ([3]; with 324 and sulbactam): 16 µg/mL; MIC of antibiotic at fixed inhibitor concentration of 4 mg/L ([4]; with 102 and clavulanate): 1 µg/mL; MIC of antibiotic at fixed inhibitor concentration of 4 mg/L ([4]; with 324 and clavulanate): 1 µg/mL; MIC of antibiotic at fixed inhibitor concentration of 4 mg/L ([4]; with 324 and sulbactam): 2 µg/mL
Cc1nnc(SCC(=O)N2CC[C@@H]3[C@H]2C(=O)N3S(=O)(=O)[O-])s1.[Na+] [Compound 202, Sodium(1S,5R)-2-[2-(1-methyl(1,3,4-thiadiazol-2-ylthio))acetyl]-7-oxo-2,6-diazabicyclo[3.2.0]heptane-6-sulfonate]	–	–	–	–	–	–	–	–	–	–	–	–	–	4	8	0.5	16	0.125	4	2	–
CO/N=C(\C(=O)N[C@@H]1C(=O)N2C(C(=O)[O-])=C(C[N+]3(C)CCCC3)CS[C@H]12)c1csc(N)n1 [Cefepime]	32	–	–	32	–	–	0.13 µg/mL and 0.125 µg/mL	–	–	2	4	4	4	–	–	–	–	–	–	–	MIC of antibiotic (Acinetobacter sp. J2; Acinetobacter sp. J2): 32 µg/mL; MIC of antibiotic [2, 8]: 4 µg/mL
NC(=O)CNC(=O)c1ccc[n+](CC(=O)N2CC[C@@H]3[C@H]2C(=O)N3S(=O)(=O)[O-])c1 [Compound 108, (1S,5R)-2-(2-{3-[N-(carbamoylmethyl)carbamoyl]pyridinium}acetyl)-7-oxo-2,6-diazabicyclo[3.2.0]heptane-6-sulfonate, inner salt]	–	–	–	–	–	–	–	–	–	–	–	–	–	>32	>32	0.25	4	0.125	4	1	–
O=C(NCc1ccc(O)c(O)c1)N1CC[C@@H]2[C@H]1C(=O)N2S(=O)(=O)[O-].[Na+] [Compound 303, Sodium(1S,5R)-2-{N-[(3,4-dihydroxyphenyl)methyl]carbamoyl}-7-oxo-2,6-diazabicyclo[3.2.0]heptane-6-sulfonate]	–	–	–	–	–	–	–	–	–	–	–	–	–	>32	>32	0.5	32	0.125	4	2	–
NC(=O)OC[C@@H]1[C@H](NC(=O)/C(=N\OCc2cc(=O)c(O)cn2O)c2nsc(N)n2)C(=O)N1OS(=O)(=O)O [Compound 48, ((2S,3S)-3-{(2Z)-2-(5-amino(1,2,4-thiadiazol-3-yl))-3-[(1,5-dihydroxy-4-oxo(2-hydropyridyl))methoxy]-3-azaprop-2-enoylamino}-1-(hydroxysulfonyloxy)-4-oxoazetidin-2-yl)methyl aminooate]	>32	>32	>32	4	2	2	8 µg/mL	2	2	>32	4	8	>32	–	–	–	–	–	–	–	MIC of antibiotic at fixed inhibitor concentration of 4 mg/L (Enterobacter cloacae P99; with 102 and clavulanate): 32 µg/mL; MIC of antibiotic at fixed inhibitor concentration of 4 mg/L (Enterobacter cloacae P99; with 324 and clavulanate): 16 µg/mL; MIC of antibiotic at fixed inhibitor concentration of 4 mg/L ([2]; Stenotrophomonas maltophilia 1AC736, with 102 and clavulanate): 4 µg/mL; MIC of antibiotic at fixed inhibitor concentration of 4 mg/L ([2]; Stenotrophomonas maltophilia 1AC736, with 324 and clavulanate): 2 µg/mL; MIC of antibiotic at fixed inhibitor concentration of 4 mg/L ([3]; with 102 and clavulanate): 4 µg/mL; MIC of antibiotic at fixed inhibitor concentration of 4 mg/L ([3]; with 324 and clavulanate): 8 µg/mL; MIC of antibiotic at fixed inhibitor concentration of 4 mg/L ([4]; with 102 and clavulanate): 2 µg/mL; MIC of antibiotic at fixed inhibitor concentration of 4 mg/L ([4]; with 324 and clavulanate): 4 µg/mL
